For one compound, IC50 results are on record in patent publication US20100267713A1, “4,4-DISUBSTITUTED PIPERIDINES” (priority 2007, published 2010).

SMILES strings stand for the structures.

For this assay, the target named is T1, renin (Homo sapiens, UniProt P00797).
T1 construct: This test measures the formation of angiotensin I in human plasma; from tissue; host or cells: human plasma
T1 sequence (P00797 67-406): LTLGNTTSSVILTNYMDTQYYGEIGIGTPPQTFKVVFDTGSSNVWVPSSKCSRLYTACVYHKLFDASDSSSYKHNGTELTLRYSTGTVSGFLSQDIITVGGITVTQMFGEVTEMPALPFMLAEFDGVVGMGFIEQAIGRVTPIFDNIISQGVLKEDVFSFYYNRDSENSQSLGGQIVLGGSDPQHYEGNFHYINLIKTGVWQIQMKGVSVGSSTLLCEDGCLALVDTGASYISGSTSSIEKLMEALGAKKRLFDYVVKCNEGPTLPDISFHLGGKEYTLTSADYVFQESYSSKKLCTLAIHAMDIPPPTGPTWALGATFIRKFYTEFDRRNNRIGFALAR
Put plainly: formation of angiotensin I in human plasma, radioimmunoassay (Nussberger et al.). As to conditions: read-out: IC50, inhibition of the formation of angiotensin I. Type of assay: biochemical. How it is done:
The effect of renin inhibitors is detected inter alia experimentally by means of in vitro tests where the reduction in the formation of angiotensin I is measured in various systems (human plasma, purified human renin together with synthetic or natural renin substrate). The following in vitro test of Nussberger et al. (1987) J. Cardiovascular Pharmacol., Vol. 9, pp. 39-44, is used inter alia. This test measures the formation of angiotensin I in human plasma. The amount of angiotensin I formed is determined in a subsequent radioimmunoassay. The effect of inhibitors on the formation of angiotensin I is tested in this system by adding various concentrations of these substances. The IC50 is defined as the concentration of the particular inhibitor which reduces the formation of angiotensin I by 50%. The compounds of the present invention show inhibitory effects in the in vitro systems at minimal concentrations of about 10^−6 to about […].

Broadly, the IC50 is the concentration at which inhibition is half-maximal. Regarding `CCCc1nc(COC[C@@H](C)OCC)ccc1[C@@]1(O)CCNC[C@@H]1OCc1ccc2c(c1)N(CCCOC)CCO2` [Example 501, (3′S,4′S)-6-((R)-2-Ethoxy-propoxymethyl)-3′-[4-(3-methoxy-propyl)-3,4-dihydro-2H-benzo[1,4]oxazin-6-ylmethoxy]-2-propyl-2′,3′,5′,6′-tetrahydro-1′H-[3,4′]bipyridinyl-4′-ol], the IC50 came to 48 nM.
